Test [1] has as its system Nucleic Acid. Kind of test: Cleavage of supercoiled DNA plasmid pBR322 after 2 days in presence of dithiothreitol. The format is nucleic-acid assay.
Test [2] deals with Nucleic Acid. Kind of test: Conversion of type 1 supercoiled DNA to type 2 nicked DNA in presence of dithiothreitol. Also noted: concentration or dose not given beside the values. The format is nucleic-acid assay.
Test [3] relates to Nucleic Acid. Nature of the test: Cleavage of supercoiled DNA plasmid pBR322 after 2 days. The class given is nucleic-acid assay.
For test [4], the system named is Nucleic Acid. Nature of the test: Conversion of type 1 supercoiled DNA to type 2 nicked DNA. Also noted: concentration or dose not given beside the values. The format is nucleic-acid assay.
Test [5] deals with Nucleic Acid. Kind of test: Conversion of type 1 supercoiled DNA to type 2 nicked DNA in presence of dithiothreitol relative to Kinamycin D. The class given is nucleic-acid assay.
The subject of test [6] is HeLa. Nature of the test: Antiproliferative activity against HeLa cells at 100 nM. The format is functional, cell-based. Particulars: Homo sapiens.
Test [7] concerns HeLa. Kind of test: Antiproliferative activity against HeLa cells at 100 nM after 12 hrs. The format is functional. Particulars: Homo sapiens.
In test [8] the test system is Nucleic Acid. Nature of the test: Cleavage of supercoiled DNA plasmid pBR322 after 2 days in presence of sodium cyanide. The class given is nucleic-acid assay.
Test [9] concerns Nucleic Acid. Nature of the test: Cleavage of supercoiled DNA plasmid pBR322 after 2 days in presence of NADPH. The class given is nucleic-acid assay.

This is an account of results in ChEMBL document CHEMBL1148672, “Mimicking the biological activity of diazobenzo[b]fluorene natural products with electronically tuned diazofluorene analogs” (2006).

Activity calls are given as the source filed them. No cut-off for these calls is given here.

`CC(=O)O[C@@H]1c2c(c3c(=O)c4cccc(O)c4c(=O)c=3c2=[N+]=[N-])[C@H](O)[C@@H](OC(C)=O)[C@]1(C)O`: the Activity entry is “Time-dependent effect” in test [1], 28% in [2] and below 5% in test [4]. The result in test [3] was inactive.
Turning to `[N-]=[N+]=C1c2ccccc2-c2ccccc21`, the Activity in [2] and in test [4] was below 5% throughout.
Regarding `[N-]=[N+]=C1c2ccccc2-c2cccc([N+](=O)[O-])c21`, the Activity in test [2] and in test [4] was below 5% each time.
For the molecule `COc1ccc(OC)c2c1C(=[N+]=[N-])c1ccccc1-2`, the Activity in test [2] was 9%; in test [4], below 5%.
As for `[N-]=[N+]=C1c2ccccc2-c2c(N)cccc21`, the outcome in [1] and in test [3] was Active. The Activity was found to be 64% in test [5], 18% in [2] and 44% in [4].
On to `COc1cccc2c1C(=[N+]=[N-])c1ccccc1-2`, for which the Activity entry in test [6] is “Time-dependent effect”; in test [5], 150%; in test [2], 41%; in [4], 11%. This molecule also yielded an inhibition at 0.1 µM in test [7] of 35%. The outcome in test [8] and in test [9] was inactive.
For `Nc1cccc2c1-c1ccccc1C2=O`, the outcome in test [3] was inactive.
Take `COc1cccc2c1-c1ccccc1C2=[N+]=[N-]`: the Activity was 13% in [2] and below 5% in [4].
Take `[N-]=[N+]=C1c2ccccc2-c2c1cccc2[N+](=O)[O-]`: the Activity in [2] and in test [4] was below 5% each time.
Regarding `[N-]=[N+]=C1c2ccccc2-c2cccc(Cl)c21`, the Activity in test [2] and in [4] was below 5% throughout.
As for `COc1cccc2c1C(=O)c1ccccc1-2`, in [3], the result was inactive.
For the molecule `[N-]=[N+]=C1c2ccccc2-c2c(Cl)cccc21`, the Activity in test [2] and in test [4] was below 5% in each case.
In the case of `[N-]=[N+]=c1c2c(=O)ccc(=O)c=2c2ccccc12`, the figures for the Activity in test [2] and in test [4] were 10% and below 5%, respectively.
